Results on one compound are retold here after PMC9897432 (Proceedings of the National Academy of Sciences of the …, 2022).

Test [1] concerns panel of 300 recombinant human kinases. It is filed as biochemical. The following applies: 0.5 µM, panel of 300 kinases.
Test [2] concerns osteoclastogenesis. The following applies: via off-target actions on M-CSF signaling; cited from earlier work.

Regarding `COc1ccc(N2C(=O)N(c3c(C)cccc3Cl)Cc3cnc(Nc4ccc(C5CCN(C)CC5)cc4OC)nc32)nc1` [YKL-05-099], the “S(80): portion of kinases tested inhibited >80%” value in test [1] is 43/300. Further, the “osteoclast maturation (in words)” value in test [2] is “directly blocks osteoclast maturation”.
